Laboratory results as given in patent US20250154197A1, “LIPOLYTIC PEPTIDES” (FUNDACIÓ HOSPITAL UNIVERSITARI VALL D'HEBRON - INSTITUT DE …, priority 2021, published 2025).
Where no end group is shown, it is not given here. [ ]: non-standard residue; d: D form.

How the values were obtained:
[1] = test system: human subcutaneoous mature adipocytes; experiment: Lipolytic activity: glycerol release in human adipocytes (Lipolysis Assay kit); assay type: cell-based; details: human subcutaneous mature adipocytes
3T3-L1 mouse adipocytes = experiment: Lipolytic activity: glycerol release in differentiated 3T3-L1 mouse adipocytes (12 h); assay type: cell-based; details: 3T3-L1 mouse adipocytes, 12 h
Procedure: JCRB9014-A) from Tebu-Bio (Tebu-bio, Barcelona, Spain). Briefly, mouse adipocytes (3T3-L1 cells) were cultured in 48 well plates as described previously (Saez-Lopez et al., 2020). Adipocytes were differentiated using cell culture reagents purchased from Tebu-Bio and following the manufacturer's instructions. At day of differentiation cells were treated in duplicates with vehicle (DMSO), Caffeine (100 μg/ml), and each of the peptides at the specified doses in Table 6a below. At the end of the experiment (12 h), supernatants were collected and glycerol content was measured using a Glycerol Assay Kit (Sigma) following manufacturer's instructions.

Substance | Lipolysis Activity measured as Glycerol (μM) release in media ([1]; 25 μg/ml) | Lipolysis Activity measured as Glycerol (μM) release in media ([1]; 50 μg/ml) | Lipolysis Activity measured as Glycerol (μM) release in media ([1]; 75 μg/ml) | Lipolysis Activity measured as Glycerol (μM) release in media ([1]; 100 μg/ml) | Lipolysis Activity measured as Glycerol (μM) release in media (3T3-L1 mouse adipocytes; 1 μg/ml) | Lipolysis Activity measured as Glycerol (μM) release in media (3T3-L1 mouse adipocytes; 10 μg/ml) | Lipolysis Activity measured as Glycerol (μM) release in media (3T3-L1 mouse adipocytes; 100 μg/ml)
Ac-TWDPEGVIFY (Ac-[dT][dW][dD][dP][dE]G[dV][dI][dF][dY]) [GP3D-Ac, N-term CH3CONH, C-term COOH] | 16.56 µM | 36.41 µM | 43.36 µM | 58.41 µM | 354 µM | 388 µM | 498 µM
DPEGLFY (H-[dD][dP][dE]G[dL][dF][dY]-OH; SMILES CC(C)C[C@@H](NC(=O)CNC(=O)[C@@H](CCC(=O)O)NC(=O)[C@H]1CCCN1C(=O)[C@H](N)CC(=O)O)C(=O)N[C@H](Cc1ccccc1)C(=O)N[C@H](Cc1ccc(O)cc1)C(=O)O) [GP3D-DM2, N-term NH2, C-term COOH] | 15.77 µM | 34.83 µM | 48.40 µM | 52.24 µM | 303 µM | – | –
DPEGVI (H-[dD][dP][dE]G[dV][dI]-OH; SMILES CC[C@@H](C)[C@@H](NC(=O)[C@H](NC(=O)CNC(=O)[C@@H](CCC(=O)O)NC(=O)[C@H]1CCCN1C(=O)[C@H](N)CC(=O)O)C(C)C)C(=O)O) [GP3D-6 I II IX X, N-term NH2, C-term COOH] | 17.01 µM | 40.79 µM | 43.36 µM | 53.13 µM | 326 µM | 300 µM | 368 µM
DPEGVIF (H-[dD][dP][dE]G[dV][dI][dF]-OH; SMILES CC[C@@H](C)[C@@H](NC(=O)[C@H](NC(=O)CNC(=O)[C@@H](CCC(=O)O)NC(=O)[C@H]1CCCN1C(=O)[C@H](N)CC(=O)O)C(C)C)C(=O)N[C@H](Cc1ccccc1)C(=O)O) [GP3D-7 I II X, N-term NH2, C-term COOH] | 17.04 µM | 34.80 µM | 48.09 µM | 58.31 µM | 391 µM | 405 µM | 313 µM
DPEGVIY (H-[dD][dP][dE]G[dV][dI][dY]-OH; SMILES CC[C@@H](C)[C@@H](NC(=O)[C@H](NC(=O)CNC(=O)[C@@H](CCC(=O)O)NC(=O)[C@H]1CCCN1C(=O)[C@H](N)CC(=O)O)C(C)C)C(=O)N[C@H](Cc1ccc(O)cc1)C(=O)O) [GP3D-7 I II IX, N-term NH2, C-term COOH] | 19.68 µM | 34.01 µM | 46.62 µM | 56.08 µM | 417 µM | 380 µM | 346 µM
NDPEGLY (H-[dN][dD][dP][dE]G[dL][dY]-OH; SMILES CC(C)C[C@@H](NC(=O)CNC(=O)[C@@H](CCC(=O)O)NC(=O)[C@H]1CCCN1C(=O)[C@@H](CC(=O)O)NC(=O)[C@H](N)CC(N)=O)C(=O)N[C@H](Cc1ccc(O)cc1)C(=O)O) [GP3D-DM5, N-term NH2, C-term COOH] | 21.84 µM | 39.18 µM | 47.07 µM | 55.12 µM | – | – | 326 µM
NDPEGVIY (H-[dN][dD][dP][dE]G[dV][dI][dY]-OH; SMILES CC[C@@H](C)[C@@H](NC(=O)[C@H](NC(=O)CNC(=O)[C@@H](CCC(=O)O)NC(=O)[C@H]1CCCN1C(=O)[C@@H](CC(=O)O)NC(=O)[C@H](N)CC(N)=O)C(C)C)C(=O)N[C@H](Cc1ccc(O)cc1)C(=O)O) [GP3D-DM6, N-term NH2, C-term COOH] | 19.83 µM | 37.09 µM | 48.37 µM | 55.19 µM | 304 µM | – | 405 µM
TWDPEG (H-[dT][dW][dD][dP][dE]G-OH; SMILES C[C@H](O)[C@@H](N)C(=O)N[C@H](Cc1c[nH]c2ccccc12)C(=O)N[C@H](CC(=O)O)C(=O)N1CCC[C@@H]1C(=O)N[C@H](CCC(=O)O)C(=O)NCC(=O)O) [GP3D-6 VII VIII IX X, N-term NH2, C-term COOH] | – | – | – | – | 404 µM | 327 µM | –
TWDPEGIFY (H-[dT][dW][dD][dP][dE]G[dI][dF][dY]-OH; not fully specified) [GP3D-9 VII, N-term NH2, C-term COOH] | – | – | – | – | – | – | 354 µM
TWDPEGVI (H-[dT][dW][dD][dP][dE]G[dV][dI]-OH; not fully specified) [GP3D-8 IX X, N-term NH2, C-term COOH] | – | – | – | – | 396 µM | 383 µM | 528 µM
TWDPEGVIF (H-[dT][dW][dD][dP][dE]G[dV][dI][dF]-OH; not fully specified) [GP3D-9 X, N-term NH2, C-term COOH] | – | – | – | – | – | – | 493 µM
